Assay results as given in patent US20050282743A1, “Molecular interactions in cells” (Arbor Vita Corporation, priority 2001, published 2005).
Like-named read-outs stand apart in the source and are kept apart here. Ends that are not written are not given here. Peptide text beside a SMILES is read from it. * marks the point of attachment. Biotin = O=C1N[C@H]2[C@H](CS[C@H]2CCCCC(=O)*)N1

Experiments:
Format in all cases: binding
[1] = biological target: T1, PDZ protein (GST-PDZ fusion) (Homo sapiens, UniProt O15018); experiment: G' assay (10 uM PL peptide), results of TABLE 7 and TABLE 12
T1 construct: made in house; host or cells: E. coli (DH5alpha, BL21 or JM109)
Procedure, shortened: (§1)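 Same steps as the G-zero format, apart from a peptide concentration of 10 uM in place of 20 uM in step 2. Amino-terminally biotinylated PL peptides bind GST-PDZ fusions, and retained peptide is quantified by 450 nm absorbance.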

[2] = biological target: T2, PDZ protein (GST-PDZ fusion) (Homo sapiens, UniProt Q13796); experiment: as above; details: PDZ hAPXL, PDZ Domain 1
T2 construct: made in house; host or cells: E. coli (DH5alpha, BL21 or JM109)
Procedure, shortened: as §1

[3] = biological target: T3, PDZ protein (GST-PDZ fusion) (Homo sapiens, UniProt Q9NZN5); experiment: as above; details: PDZ KIAA0382, PDZ Domain 1
T3 construct: made in house; host or cells: E. coli (DH5alpha, BL21 or JM109)
Procedure, shortened: as §1

[4] = biological target: T4, PDZ protein (GST-PDZ fusion) (Homo sapiens, UniProt O14907); experiment: as above; details: PDZ TIP1, PDZ Domain 1
T4 construct: made in house; host or cells: E. coli (DH5alpha, BL21 or JM109)
T4 sequence (O14907 1-124): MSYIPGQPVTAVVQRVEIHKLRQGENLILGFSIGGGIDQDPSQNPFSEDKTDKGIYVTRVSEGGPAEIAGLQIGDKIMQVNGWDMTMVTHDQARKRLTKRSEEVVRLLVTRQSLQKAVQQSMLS
Procedure, shortened: as §1

[5] = biological target: T5, PDZ protein (GST-PDZ fusion) (Homo sapiens, UniProt P57105); experiment: as above; details: PDZ Outer Membrane, PDZ Domain 1
T5 construct: made in house; host or cells: E. coli (DH5alpha, BL21 or JM109)
T5 sequence (P57105 1-145): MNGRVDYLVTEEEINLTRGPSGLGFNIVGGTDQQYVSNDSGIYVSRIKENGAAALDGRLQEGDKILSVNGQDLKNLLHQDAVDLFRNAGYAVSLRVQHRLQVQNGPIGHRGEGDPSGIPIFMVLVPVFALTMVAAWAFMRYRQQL
Procedure, shortened: as §1

[6] = biological target: T6, PDZ protein (GST-PDZ fusion) (Homo sapiens, UniProt Q12959); experiment: as above
T6 construct: made in house; host or cells: E. coli (DH5alpha, BL21 or JM109)
Procedure, shortened: as §1

[7] = biological target: T7, PDZ protein (GST-PDZ fusion) (Homo sapiens, UniProt Q14160); experiment: as above
T7 construct: made in house; host or cells: E. coli (DH5alpha, BL21 or JM109)
Procedure, shortened: as §1

[8] = biological target: T8, PDZ protein (GST-PDZ fusion) (Homo sapiens, UniProt Q8NI35); experiment: as above; details: PDZ INADL
T8 construct: made in house; host or cells: E. coli (DH5alpha, BL21 or JM109)
Procedure, shortened: as §1

[9] = biological target: PDZ-domain polypeptide (GST/PDZ fusion protein); experiment: Apparent affinity (Kd) by titration of PL peptide in the G assay
Procedure, shortened: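 A fixed concentration of GST/PDZ fusion protein, 5 ug/ml by default, was mixed in solution with increasing labeled PL peptide (e.g. 0.1 uM-1 mM). Reaction times ranged from 10 minutes to 2 days at 4-37° C. Complexes were separated from free peptide and detected via the label as in the G assay, apparent affinity coming from the saturating concentration.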

[10] = biological target: T9, PDZ protein (GST-PDZ fusion) (Homo sapiens, UniProt P78352); experiment: G' assay (10 uM PL peptide), results of TABLE 7 and TABLE 12
T9 construct: made in house; host or cells: E. coli (DH5alpha, BL21 or JM109)
Procedure, shortened: as §1

[11] = biological target: T10, PDZ protein (GST-PDZ fusion) (Homo sapiens, UniProt Q15700); experiment: as above
T10 construct: made in house; host or cells: E. coli (DH5alpha, BL21 or JM109)
Procedure, shortened: as §1

T6 sequence (Q12959 whole entry, the tested form may be a part): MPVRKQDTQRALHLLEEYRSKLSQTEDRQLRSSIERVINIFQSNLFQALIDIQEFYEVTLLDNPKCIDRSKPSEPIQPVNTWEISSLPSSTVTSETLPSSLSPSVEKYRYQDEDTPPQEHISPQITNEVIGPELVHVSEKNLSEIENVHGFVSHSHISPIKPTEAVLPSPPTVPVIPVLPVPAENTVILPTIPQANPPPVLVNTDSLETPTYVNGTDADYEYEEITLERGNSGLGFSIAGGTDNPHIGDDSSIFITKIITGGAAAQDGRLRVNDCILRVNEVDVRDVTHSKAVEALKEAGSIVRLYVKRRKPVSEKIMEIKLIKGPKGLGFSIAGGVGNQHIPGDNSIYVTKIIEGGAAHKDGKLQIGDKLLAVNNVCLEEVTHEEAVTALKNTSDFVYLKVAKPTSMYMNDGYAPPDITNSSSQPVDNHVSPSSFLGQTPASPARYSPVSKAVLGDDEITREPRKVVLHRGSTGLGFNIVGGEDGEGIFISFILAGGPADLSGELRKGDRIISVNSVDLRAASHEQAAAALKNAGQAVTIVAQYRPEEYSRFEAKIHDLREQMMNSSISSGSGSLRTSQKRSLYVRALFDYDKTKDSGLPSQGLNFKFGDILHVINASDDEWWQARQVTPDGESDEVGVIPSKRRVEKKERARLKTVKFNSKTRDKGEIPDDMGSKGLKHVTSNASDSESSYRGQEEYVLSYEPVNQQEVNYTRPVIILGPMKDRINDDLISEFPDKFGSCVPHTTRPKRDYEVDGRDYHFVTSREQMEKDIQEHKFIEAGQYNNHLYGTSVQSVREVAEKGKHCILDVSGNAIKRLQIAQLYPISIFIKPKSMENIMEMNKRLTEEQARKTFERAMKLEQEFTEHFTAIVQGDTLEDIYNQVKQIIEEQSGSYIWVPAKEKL
T1 sequence (O15018 whole entry, the tested form may be a part): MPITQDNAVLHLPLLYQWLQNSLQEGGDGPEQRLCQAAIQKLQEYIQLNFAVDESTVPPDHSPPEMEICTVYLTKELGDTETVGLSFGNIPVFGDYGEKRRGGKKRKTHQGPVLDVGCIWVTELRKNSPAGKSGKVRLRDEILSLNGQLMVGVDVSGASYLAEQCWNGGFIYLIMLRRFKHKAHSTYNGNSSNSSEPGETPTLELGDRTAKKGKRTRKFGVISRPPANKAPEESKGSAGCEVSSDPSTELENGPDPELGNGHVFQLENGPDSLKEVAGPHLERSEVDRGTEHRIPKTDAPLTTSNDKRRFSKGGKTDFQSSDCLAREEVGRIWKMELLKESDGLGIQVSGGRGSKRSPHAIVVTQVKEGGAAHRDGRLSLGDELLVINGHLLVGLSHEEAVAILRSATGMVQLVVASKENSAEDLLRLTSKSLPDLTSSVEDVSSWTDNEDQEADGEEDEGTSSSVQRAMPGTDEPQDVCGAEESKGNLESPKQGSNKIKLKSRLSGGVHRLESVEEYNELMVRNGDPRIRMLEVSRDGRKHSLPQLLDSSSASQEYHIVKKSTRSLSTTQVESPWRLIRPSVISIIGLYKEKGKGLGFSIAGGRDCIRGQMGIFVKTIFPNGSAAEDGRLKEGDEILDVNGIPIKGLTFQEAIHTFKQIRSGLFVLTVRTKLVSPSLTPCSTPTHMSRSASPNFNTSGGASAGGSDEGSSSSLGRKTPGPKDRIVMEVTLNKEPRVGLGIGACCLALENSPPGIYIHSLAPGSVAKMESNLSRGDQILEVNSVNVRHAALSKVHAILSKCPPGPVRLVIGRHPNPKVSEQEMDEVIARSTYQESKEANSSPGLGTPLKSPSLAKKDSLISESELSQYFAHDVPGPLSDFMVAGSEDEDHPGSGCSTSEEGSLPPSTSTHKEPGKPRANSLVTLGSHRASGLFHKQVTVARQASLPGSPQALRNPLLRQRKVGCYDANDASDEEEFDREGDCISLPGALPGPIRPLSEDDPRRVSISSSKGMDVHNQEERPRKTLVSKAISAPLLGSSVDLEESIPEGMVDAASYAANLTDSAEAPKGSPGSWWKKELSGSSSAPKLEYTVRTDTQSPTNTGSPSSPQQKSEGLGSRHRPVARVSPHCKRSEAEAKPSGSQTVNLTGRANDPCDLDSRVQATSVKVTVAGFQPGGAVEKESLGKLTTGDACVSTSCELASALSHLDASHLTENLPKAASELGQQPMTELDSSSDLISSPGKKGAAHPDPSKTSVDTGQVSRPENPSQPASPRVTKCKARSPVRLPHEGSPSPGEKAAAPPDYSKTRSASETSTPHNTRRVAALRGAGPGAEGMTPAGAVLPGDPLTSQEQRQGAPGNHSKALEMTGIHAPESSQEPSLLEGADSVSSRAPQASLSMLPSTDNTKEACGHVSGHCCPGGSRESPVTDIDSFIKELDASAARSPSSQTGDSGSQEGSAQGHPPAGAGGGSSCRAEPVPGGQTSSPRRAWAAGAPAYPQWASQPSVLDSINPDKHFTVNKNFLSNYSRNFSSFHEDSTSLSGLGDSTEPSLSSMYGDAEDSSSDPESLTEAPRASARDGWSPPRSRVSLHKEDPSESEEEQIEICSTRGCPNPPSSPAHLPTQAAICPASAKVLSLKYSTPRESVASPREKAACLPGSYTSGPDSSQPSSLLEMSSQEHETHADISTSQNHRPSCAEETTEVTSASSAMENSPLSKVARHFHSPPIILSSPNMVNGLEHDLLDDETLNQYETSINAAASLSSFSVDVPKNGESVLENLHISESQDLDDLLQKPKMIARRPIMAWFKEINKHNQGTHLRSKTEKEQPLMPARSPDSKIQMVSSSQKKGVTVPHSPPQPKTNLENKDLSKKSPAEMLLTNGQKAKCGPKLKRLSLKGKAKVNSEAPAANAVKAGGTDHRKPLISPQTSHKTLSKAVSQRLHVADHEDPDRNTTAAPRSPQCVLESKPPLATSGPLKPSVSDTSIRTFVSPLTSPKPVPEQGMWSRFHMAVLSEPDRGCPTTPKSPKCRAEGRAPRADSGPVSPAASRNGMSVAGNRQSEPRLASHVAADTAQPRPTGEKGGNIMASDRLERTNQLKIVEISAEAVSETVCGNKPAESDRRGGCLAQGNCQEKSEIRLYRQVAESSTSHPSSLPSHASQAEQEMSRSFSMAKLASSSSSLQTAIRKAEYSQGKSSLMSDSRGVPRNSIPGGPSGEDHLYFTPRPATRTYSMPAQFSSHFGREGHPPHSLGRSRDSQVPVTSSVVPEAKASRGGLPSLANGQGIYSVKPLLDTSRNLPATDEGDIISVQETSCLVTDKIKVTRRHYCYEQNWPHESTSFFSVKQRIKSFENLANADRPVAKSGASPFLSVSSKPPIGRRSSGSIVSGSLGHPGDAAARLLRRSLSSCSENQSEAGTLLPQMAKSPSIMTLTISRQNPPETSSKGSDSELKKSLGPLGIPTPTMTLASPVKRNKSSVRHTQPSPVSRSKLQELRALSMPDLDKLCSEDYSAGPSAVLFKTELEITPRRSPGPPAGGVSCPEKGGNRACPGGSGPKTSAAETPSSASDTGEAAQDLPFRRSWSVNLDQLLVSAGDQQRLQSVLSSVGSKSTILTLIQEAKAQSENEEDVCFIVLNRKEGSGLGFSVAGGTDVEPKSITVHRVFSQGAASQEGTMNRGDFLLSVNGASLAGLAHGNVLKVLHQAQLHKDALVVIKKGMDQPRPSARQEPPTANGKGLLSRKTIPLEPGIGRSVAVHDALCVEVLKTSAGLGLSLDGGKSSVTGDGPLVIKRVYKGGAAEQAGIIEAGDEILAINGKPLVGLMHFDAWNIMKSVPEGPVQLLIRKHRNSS
T9 sequence (P78352 whole entry, the tested form may be a part): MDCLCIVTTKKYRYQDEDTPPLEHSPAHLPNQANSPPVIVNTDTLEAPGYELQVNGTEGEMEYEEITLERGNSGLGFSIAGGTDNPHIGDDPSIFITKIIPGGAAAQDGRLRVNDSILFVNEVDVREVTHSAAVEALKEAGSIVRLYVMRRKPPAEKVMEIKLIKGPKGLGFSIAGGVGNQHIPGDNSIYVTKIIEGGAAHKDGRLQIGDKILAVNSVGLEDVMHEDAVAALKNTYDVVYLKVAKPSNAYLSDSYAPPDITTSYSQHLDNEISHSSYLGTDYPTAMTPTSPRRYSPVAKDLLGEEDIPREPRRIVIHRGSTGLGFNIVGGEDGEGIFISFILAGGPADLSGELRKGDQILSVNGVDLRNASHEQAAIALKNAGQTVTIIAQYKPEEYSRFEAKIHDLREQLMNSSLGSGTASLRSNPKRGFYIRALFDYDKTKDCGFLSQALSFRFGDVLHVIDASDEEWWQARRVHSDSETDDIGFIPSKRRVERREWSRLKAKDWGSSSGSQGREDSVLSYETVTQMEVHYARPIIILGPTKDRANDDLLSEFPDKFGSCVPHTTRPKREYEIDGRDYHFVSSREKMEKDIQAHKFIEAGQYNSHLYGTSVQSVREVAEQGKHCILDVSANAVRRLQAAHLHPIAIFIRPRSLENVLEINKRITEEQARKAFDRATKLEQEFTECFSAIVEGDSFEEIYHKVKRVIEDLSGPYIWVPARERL

Row | Compound | Classification ([1]; PDZ AIPC, PDZ Domain 1) | Classification [2] | Classification [3] | Classification [4] | Classification [5] | Classification ([6]; PDZ DLG1, PDZ Domain 1, 2) | Classification ([6]; PDZ DLG1, PDZ Domain 2) | Classification ([7]; PDZ KIAA0147, PDZ Domain 1) | Classification ([10]; PDZ PSD95, PDZ Domain 1) | Classification ([10]; PDZ PSD95, PDZ Domain 1, 2, 3) | Classification ([10]; PDZ PSD95, PDZ Domain 3) | Classification ([6]; PDZ DLG1, PDZ Domain 1) | Classification ([11]; PDZ DLG2, PDZ Domain 1) | Classification ([11]; PDZ DLG2, PDZ Domain 2) | Classification ([8]; PDZ Domain 8) | other results
1 | VHDAESSDEDGYDWGPATDL (Biotin-VHDAESSDEDGYDWGPATDL) [zona occludens 3 (ZO-3)] | 1 (A450 nm 0-1) | 2 (A450 nm 1-2) | 2 (A450 nm 1-2) |  |  |  |  |  |  |  |  |  |  |  |  | 
2 | CC(C)C[C@H](NC(=O)[C@H](CC(=O)O)NC(=O)[C@H](CO)NC(=O)[C@H](CCC(=O)O)NC(=O)CNC(=O)[C@H](Cc1ccc(O)cc1)NC(=O)[C@H](CC(C)C)NC(=O)[C@H](C)NC(=O)[C@H](CO)NC(=O)[C@H](CO)NC(=O)[C@H](Cc1ccccc1)NC(=O)[C@H](C)NC(=O)[C@H](C)NC(=O)[C@H](Cc1ccc(O)cc1)NC(=O)[C@H](CC(=O)O)NC(=O)[C@H](CC(C)C)NC(=O)[C@H](C)NC(=O)CNC(=O)[C@@H]1CCCN1C(=O)[C@@H](NC(=O)CCCC[C@@H]1SC[C@@H]2NC(=O)N[C@@H]21)C(C)C)C(=O)O [a-actinin 2] (Biotin-VPGALDYAAFSSALYGESDL-OH; C-terminus assumed) | 2 (A450 nm 1-2) | 5 (A450 nm of 4 more than 2× repeated) |  | 5 (A450 nm of 4 more than 2× repeated) | 1 (A450 nm 0-1) | 1 (A450 nm 0-1) | 1 (A450 nm 0-1) | 2 (A450 nm 1-2) |  |  |  |  |  |  |  | Classification ([7]; PDZ KIAA0147, PDZ Domain 3): 3 (A450 nm 2-3); Classification ([8]; PDZ Domain 3): 1 (A450 nm 0-1); Kd ([9]; PDZ TAX IP2, PDZ Domain 1, titration of the PL peptide, read-out: Peptide Optimal Conc (Kd, dissociation constant)): 2.5 µM
3 | CC(C)C[C@H](NC(=O)[C@H](C)NC(=O)[C@H](CO)NC(=O)CNC(=O)[C@@H](NC(=O)CCCC[C@@H]1SC[C@@H]2NC(=O)N[C@@H]21)[C@@H](C)O)C(=O)N[C@@H](CCC(N)=O)C(=O)N[C@@H](C)C(=O)N[C@@H](Cc1c[nH]c2ccccc12)C(=O)N[C@@H](CCCNC(=N)N)C(=O)N[C@@H](Cc1c[nH]cn1)C(=O)N[C@H](C(=O)N[C@@H](CO)C(=O)N[C@@H](CCCNC(=N)N)C(=O)N[C@@H](CCC(N)=O)C(=O)N[C@@H](C)C(=O)N[C@H](C(=O)N[C@@H](CCC(=O)O)C(=O)N[C@@H](CO)C(=O)N[C@H](C(=O)N[C@H](C(=O)O)C(C)C)[C@@H](C)O)[C@@H](C)O)[C@@H](C)O [HPV E6 #66 (modified)] (Biotin-TGSALQAWRHTSRQATESTV-OH; C-terminus assumed) | 1 (A450 nm 0-1) | 1 (A450 nm 0-1) |  | 5 (A450 nm of 4 more than 2× repeated) | 5 (A450 nm of 4 more than 2× repeated) | 5 (A450 nm of 4 more than 2× repeated) | 5 (A450 nm of 4 more than 2× repeated) | 2 (A450 nm 1-2) | 4 (A450 nm 3-4) | 5 (A450 nm of 4 more than 2× repeated) | 1 (A450 nm 0-1) | 4 (A450 nm 3-4) | 1 (A450 nm 0-1) | 5 (A450 nm of 4 more than 2× repeated) | 1 (A450 nm 0-1) | Kd ([9]; PDZ BAI-1, PDZ Domain 2, read-out: Peptide Optimal Conc (Kd by titration of the PL peptide)): 3 µM
4 | CC[C@H](C)[C@H](NC(=O)[C@H](CO)NC(=O)[C@@H](NC(=O)[C@H](Cc1ccccc1)NC(=O)[C@H](CO)NC(=O)CCCC[C@@H]1SC[C@@H]2NC(=O)N[C@@H]21)[C@@H](C)O)C(=O)N[C@@H](CC(C)C)C(=O)N[C@H](C(=O)N[C@@H](CS)C(=O)N[C@@H](Cc1c[nH]cn1)C(=O)N[C@@H](CCC(N)=O)C(=O)N[C@@H](CCCNC(=N)N)C(=O)N[C@@H](CCCNC(=N)N)C(=O)N[C@H](C(=O)N[C@@H](CCC(N)=O)C(=O)N[C@@H](CCCNC(=N)N)C(=O)N[C@@H](CCCCN)C(=O)N[C@@H](CCC(=O)O)C(=O)N[C@H](C(=O)N[C@H](C(=O)N[C@@H](C)C(=O)O)C(C)C)[C@@H](C)O)[C@@H](C)O)[C@@H](C)O [GluR5-2 (rat)] |  |  |  |  |  | 5 (A450 nm of 4 more than 2× repeated) | 2 (A450 nm 1-2) | 2 (A450 nm 1-2) | 3 (A450 nm 2-3) | 5 (A450 nm of 4 more than 2× repeated) | 5 (A450 nm of 4 more than 2× repeated) | 2 (A450 nm 1-2) | 1 (A450 nm 0-1) | 1 (A450 nm 0-1) |  | Classification ([6]; PDZ DLG1, PDZ Domain 3): 1 (A450 nm 0-1); Kd ([9]; PDZ BAI-1, PDZ Domain 2, titration of the PL peptide, read-out: Peptide Optimal Conc (Kd, dissociation constant)): 0.3 µM
5 | CC[C@H](C)[C@H](NC(=O)[C@H](Cc1ccc(O)cc1)NC(=O)[C@@H](NC(=O)[C@@H]1CCCN1C(=O)[C@H](CCC(N)=O)NC(=O)[C@H](CCC(=O)O)NC(=O)[C@H](CCC(N)=O)NC(=O)[C@H](C)NC(=O)[C@@H](NC(=O)[C@H](CC(C)C)NC(=O)[C@H](CC(C)C)NC(=O)[C@H](CCCNC(=N)N)NC(=O)[C@H](Cc1ccc(O)cc1)NC(=O)[C@H](CCSC)NC(=O)[C@H](C)NC(=O)[C@H](C)NC(=O)[C@@H]1CCCN1C(=O)[C@H](CCSC)NC(=O)[C@@H](NC(=O)[C@H](CCCCN)NC(=O)CCCC[C@@H]1SC[C@@H]2NC(=O)N[C@@H]21)[C@@H](C)O)[C@@H](C)O)C(C)C)C(=O)O [MINT-1] (Biotin-KTMPAAMYRLLTAQEQPVYI-OH; C-terminus assumed) | 1 (A450 nm 0-1) |  | 1 (A450 nm 0-1) |  |  |  |  |  |  |  |  |  |  |  | 1 (A450 nm 0-1) | Classification ([1]; PDZ KIAA0300, PDZ Domain 1): 4 (A450 nm 3-4)
